{"source": "paper PMC6151435", "about": "“Bioactivity In Vitro of Quercetin Glycoside Obtained in Beauveria bassiana Culture and Its Interaction with Liposome Membranes” (Molecules : A Journal of Synthetic Chemistry and Natural …, 2017)", "key": {"[1]": {"details": "rat, in vivo; cited from earlier work"}, "HSA": {"system": "HSA", "details": "cited from earlier work; for binding constant to HSA: ref [59]"}, "[2]": {"set-up": "method as in Strugała et al. [46]", "details": "ref Strugała et al. [46]; read-out: IC50 AAPH PC (inhibition of AAPH induced oxidation of phosphatidylcholine liposomes); cited from earlier work"}, "[3]": {"details": "cited from earlier work"}, "[4]": {"assay": "Solubility in water (literature values)", "format": "physicochemical", "details": "from cited values"}}, "note": "Where two headings read alike, the source gives them in different places.", "data": [{"smiles": "O=c1c(O[C@@H]2O[C@H](CO)[C@@H](O)[C@H](O)[C@H]2O)c(-c2ccc(O)c(O)c2)oc2cc(O)cc(O)c12", "note": "[3-O-glucoside of quercetin]", "values": [{"measurement": "absorption, higher compared to quercetin itself", "setting": "[1]", "value": 184, "unit": "%"}]}, {"smiles": "COc1ccc2c(c1)c(CC(=O)O)c(C)n2C(=O)c1ccc(Cl)cc1", "note": "[Indomethacin, indomethacin]", "values": [{"measurement": "binding constant to HSA", "setting": "HSA", "value": "~489000", "unit": "M⁻¹"}]}, {"smiles": "O=C1O[C@H]([C@@H](O)CO)C(O)=C1O", "note": "[L(+) ascorbic acid, L-(+)-ascorbic acid]", "values": [{"measurement": "IC50", "setting": "[2]", "value": "129 ± 12.4", "unit": "µM"}]}, {"smiles": "CC(=O)Oc1ccccc1C(=O)O", "note": "[aspirin]", "values": [{"measurement": "binding constant to HSA", "setting": "HSA", "value": "approximately 1.4 × 10^4 M^−1"}]}, {"smiles": "Cc1cnc(NC(=O)C2=C(O)c3ccccc3S(=O)(=O)N2C)s1", "note": "[meloxicam]", "values": [{"measurement": "association constant to HSA", "setting": "HSA; order of magnitude, ref [58]", "value": "~10^5 M^−1"}, {"measurement": "bound to HSA", "setting": "HSA; ref [58]", "value": "more than 99%"}]}, {"smiles": "O=C1C[C@@H](c2ccc(O)cc2)Oc2cc(O)cc(O)c21", "note": "[naringenin]", "values": [{"measurement": "solubility", "setting": "[3]; at 20 °C, ref [9]", "value": 0.00438, "unit": "mg/mL"}]}, {"smiles": "C[C@@H]1O[C@@H](O[C@H]2[C@H](Oc3cc(O)c4c(c3)O[C@H](c3ccc(O)cc3)CC4=O)O[C@H](CO)[C@@H](O)[C@@H]2O)[C@H](O)[C@H](O)[C@H]1O", "note": "[naringin]", "values": [{"measurement": "solubility, fold higher than aglycone naringenin", "setting": "[4]", "value": "more than 110 fold"}, {"measurement": "solubility", "setting": "[3]; ref [10]", "value": 0.5, "unit": "mg/mL"}]}]}
